According to US20130150346A1, “Use of FAAH Inhibitors for Treating Parkinson's Disease and Restless Legs Syndrome” (Ironwood Pharmaceutical, Inc., priority 2010, published 2013):

Test system: MPTP-lesioned macaques
Experiment: Motor activity (total activity, high activity time and counts) in MPTP-lesioned macaques treated with URB597 and L-DOPA
Type: in vivo, cynomolgus monkeys (Macaca fascicularis)
Description: In addition, a quantitative assessment of marmoset activity was made using computer-operated passive infra-red sensors, essentially as described previously (Maccarrone et al., 2003, J. Neurochem. 85: 1018-1025; Visanji et al., 2009 J Pharm Exp Ther 328: 276-283). A single sensor containing a hemispherical lens (Guardall, Mississauga, ON, Canada) was mounted 1.5 m above the top of each the observation cage. The sensor was positioned so that motion was detected throughout the entirety of the cage below. The signal was fed via an RS-232 input to a computer. […] Activity counts were logged in 1-min epochs for the entire 6 h duration of the experiment and cumulated over the peak dose period of 2-4 h.
Assessment of marmoset activity was further assessed over time by quantifying the average activity of counts per minute of the same animals obtained prior to administration of MPTP (i.e., in the normal state). Activity over the same period of 2-4 h was calculated and used to identify minutes of high activity (a minute when activity was above the average per minute of the animal prior to MPTP). High activity counts (the total counts obtained in high activity minutes) were cumulated. High activity time (the number of high activity minutes) were also calculated.
Six cynomolgus monkeys (Macaca fascicularis) were used in each experiment. Animals were group housed with up to 3 animals per cage. The cage sizes exceeded UK, NIH, EU and CCAC minimum size recommendations, 2.4 m×3.0 m×1.0 m. The housing room was subject to a 12 hour light-dark cycle (lights on 7 a.m.), temperature 20-25° C. in a room containing only animals of the same sex. Fresh fruit, primate pellets and water was available ad libitum unless specifically described in other examples below.
This experiment examined the behavioral responses to five doses of URB597 (0.01, 0.03, 0.1, 0.3 or 1 mg/kg, i.v.) or vehicle in combination with L-DOPA in six parkinsonian macaques previously lesioned with MPTP.
The protocols for housing and acclimatization for the six parkinsonian MPTP-lesioned macaques were as those detailed in Example 6.
After acclimatization, the macaques in the MPTP cohort were rendered parkinsonian by once daily subcutaneous injection of 0.2 mg/kg MPTP, administered for 8-12 days, until the first appearance of parkinsonism symptoms. After this time, a parkinsonian syndrome evolved to a moderate to marked level, over approximately 30 days, and stabilized. Additional administrations of MPTP were given to some animals to titrate to similar degrees of parkinsonism in individuals across the group.
Sixty days after commencing MPTP administration, L-DOPA (20 mg/kg) was administered orally twice daily for six months. L-DOPA was administered as Madopar™ (L-DOPA in combination with benserazide). This treatment led to the development of motor fluctuations, including dyskinesia and wearing-off.
Dose-finding studies were performed to define a dose of L-DOPA for each individual macaque that provided the best anti-parkinsonian effect achievable and elicited hyperactivity that was stable and reproducible for that animal, on successive L-DOPA administrations.
L-DOPA was administered p.o. at a dose volume of 1 ml/kg, as Madopar™ (L-DOPA in combination with benserazide in the ratio 4:1). The vehicle for Madopar™ was water. On days when animals were not subject to behavioral observations they received maintenance oral L-DOPA, Madopar™ (30 mg/kg, p.o.) at approximately 9:00 a.m.
URB597 was obtained from Cayman Chemical (product #10046) and was formulated in 0.9% sterile saline containing 1% DMSO (v/v) (Sigma-Aldrich product #D2650) and 2% (v/v) Tween-80 (Sigma-Aldrich product #P4780) for dosing at a volume of 1 ml/kg.
For each URB597 concentration tested, requisite amounts of URB597 were weighed into sterile 50 ml sterile polypropylene tubes (Falcon™) (e.g., for the 1 mg/kg doses, approximately 35 mg was weighed). […]

NC(=O)c1cccc(-c2cccc(OC(=O)NC3CCCCC3)c2)c1 [URB597]
hyperactive behavior compared with treatment with L-DOPA alone (0.3 and 1.0 mg/ml (so in the source) URB597 i.v. and L-DOPA p.o.): significant reduction | effect on L-DOPA-induced hyperactivity (URB597 0.1 mg/kg i.v. + L-DOPA p.o.): ineffective | total activity versus L-DOPA treatment only (URB597 0.3 mg and 1.0 mg/kg i.v. + L-DOPA p.o., at 3 hrs, RM-ANOVA): significant effect | effect on L-DOPA-induced hyperactivity (URB597 0.3 mg/kg i.v. + L-DOPA p.o.): maximally effective | levels of L-DOPA-induced hyperactivity, dose dependence (URB597 0.01-1 mg/kg i.v. + L-DOPA p.o.): dose-dependently reduced | hyperactivity over the L-DOPA treatments alone (URB597 0.3 and 1.0 mg/kg i.v. + L-DOPA p.o., at 3 hrs post-administration of L-DOPA): lowered hyperactivity
